Article PMC8718961, “The CbbQO-type rubisco activases encoded in carboxysome gene clusters can activate carboxysomal form IA rubiscos” (The Journal of Biological Chemistry, 2021)
One block for each compound: values may come before it.

Assays:
[1] = molecular target: A. ferrooxidans carboxysomal form IA^C rubisco with N472H in the large subunit (Acidithiobacillus ferrooxidans ATCC23270)
[2] = molecular target: A. ferrooxidans carboxysomal form IA^C rubisco with the last three residues of the large subunit changed from VNR to AHK (Acidithiobacillus ferrooxidans ATCC23270)
[3] = molecular target: A. ferrooxidans carboxysomal form IA^C rubisco with N472H in the large subunit (Acidithiobacillus ferrooxidans ATCC23270); remark: listed apart in the source
[4] = molecular target: A. ferrooxidans carboxysomal form IA^C rubisco with the last three residues of the large subunit changed from VNR to AHK (Acidithiobacillus ferrooxidans ATCC23270); remark: listed apart in the source
[5] = molecular target: T1, HnLS (form IA^C carboxysomal rubisco) (Halothiobacillus neapolitanus, UniProt O85040); experiment: inhibited ECM-CABP (ECMC) complex, reactivation by CbbQO activase, coupled spectrophotometric rubisco assay; format: biochemical; conditions: 20 mM NaHCO3, Mg2+, 25 °C; PEG 3350; active site, tight-binding transition-state analog
T1 construct: gene cbbL; recombinant E. coli BL21(DE3), pET30bHnLS (NdeI/HindIII); large and small subunits; anion exchange and size exclusion

[6] = molecular target: T2, AfL2S2 (form IA^C carboxysomal rubisco) (Acidithiobacillus ferrooxidans, UniProt B7JB30, V471A/N472H/R473K); experiment: as above; format: biochemical; conditions: 20 mM NaHCO3, Mg2+, 25 °C; PEG 3350; active site, tight-binding transition-state analog; printed as VNR C terminus substituted with AHK
T2 construct: gene cbbL1; recombinant E. coli BL21(DE3); large and small subunits; anion exchange and size exclusion

[7] = molecular target: T3, AfL2S2 (form IA^C carboxysomal rubisco) (Acidithiobacillus ferrooxidans, UniProt B7JB30); experiment: as above; format: biochemical; conditions: 20 mM NaHCO3, Mg2+, 25 °C; PEG 3350; active site, tight-binding transition-state analog
T3 construct: gene cbbL1; recombinant E. coli BL21(DE3); large and small subunits; anion exchange and size exclusion

[8] = molecular target: T4, AfL2S2 (form IA^C carboxysomal rubisco) (Acidithiobacillus ferrooxidans, UniProt B7JB30, N472H); experiment: as above; format: biochemical; conditions: 20 mM NaHCO3, Mg2+, 25 °C; PEG 3350; active site, tight-binding transition-state analog
T4 construct: gene cbbL1; recombinant E. coli BL21(DE3); large and small subunits; anion exchange and size exclusion

[9] = molecular target: T5, AfQ1O1 (form IA^Q-associated CbbQO rubisco activase) (Acidithiobacillus ferrooxidans, UniProt B7JA26); experiment: ATPase, coupled spectrophotometric assay; format: biochemical; conditions: 0.27 µM oligomer, 25 °C
T5 construct: gene cbbQ-1; recombinant E. coli BL21(DE3), pHueAfCbbQ1 and pBad33UbAfcbbO1; CbbQ hexamer with CbbO; with CbbO protein (von Willebrand factor A domain, rubisco activase adaptor)
T5 sequence (B7JA26 1-267): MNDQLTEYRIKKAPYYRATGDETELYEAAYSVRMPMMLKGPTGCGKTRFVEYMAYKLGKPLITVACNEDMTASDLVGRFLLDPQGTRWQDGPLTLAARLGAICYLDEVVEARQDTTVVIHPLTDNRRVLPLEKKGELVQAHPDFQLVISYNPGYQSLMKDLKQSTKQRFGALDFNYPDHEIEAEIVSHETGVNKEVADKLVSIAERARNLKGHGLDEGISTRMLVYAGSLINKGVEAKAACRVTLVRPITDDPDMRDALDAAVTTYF
T5 sequence (B7JA27 1-772 partner): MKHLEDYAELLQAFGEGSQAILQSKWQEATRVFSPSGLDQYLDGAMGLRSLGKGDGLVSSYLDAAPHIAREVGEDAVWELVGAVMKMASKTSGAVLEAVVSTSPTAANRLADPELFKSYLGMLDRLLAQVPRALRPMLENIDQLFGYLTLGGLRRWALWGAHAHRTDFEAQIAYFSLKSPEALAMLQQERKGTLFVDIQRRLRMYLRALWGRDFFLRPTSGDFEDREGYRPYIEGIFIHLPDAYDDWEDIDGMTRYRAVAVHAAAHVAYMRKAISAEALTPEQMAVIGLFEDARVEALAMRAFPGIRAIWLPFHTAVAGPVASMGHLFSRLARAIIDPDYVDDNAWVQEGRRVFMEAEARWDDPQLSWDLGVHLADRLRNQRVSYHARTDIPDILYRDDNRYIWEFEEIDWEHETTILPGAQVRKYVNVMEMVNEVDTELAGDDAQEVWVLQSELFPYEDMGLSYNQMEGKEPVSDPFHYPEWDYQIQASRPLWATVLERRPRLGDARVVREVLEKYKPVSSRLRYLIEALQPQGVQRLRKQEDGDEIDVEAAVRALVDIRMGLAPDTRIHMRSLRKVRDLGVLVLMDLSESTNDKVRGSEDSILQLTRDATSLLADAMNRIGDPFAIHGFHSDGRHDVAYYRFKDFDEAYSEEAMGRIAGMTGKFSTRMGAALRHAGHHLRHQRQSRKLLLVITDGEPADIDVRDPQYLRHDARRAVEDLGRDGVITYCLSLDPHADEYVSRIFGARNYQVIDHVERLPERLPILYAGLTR

[10] = molecular target: T6, AfQ3O3 (carboxysomal CbbQO rubisco activase) (Acidithiobacillus ferrooxidans, UniProt B7JB17); experiment: ATPase, coupled spectrophotometric assay; format: biochemical; conditions: 0.27 µM oligomer, 25 °C
T6 construct: gene p30; recombinant E. coli BL21(DE3), pHue and pBad33 (ubiquitin-type) vectors; CbbQ hexamer with CbbO; with CbbO protein (von Willebrand factor A domain, rubisco activase adaptor)

[11] = molecular target: T2, AfL2S2 (form IA^C carboxysomal rubisco); experiment: spontaneous RuBP release from ER complex; format: biochemical; conditions: apoenzyme with RuBP; 25 °C; active site; printed as VNR C terminus substituted with AHK
[12] = molecular target: T7, SynLS (form IB rubisco) (Synechococcus elongatus, UniProt P00880); experiment: RuBP release rate from apo-rubisco-RuBP (ER) complex, carboxylation time course; format: biochemical; conditions: apoenzyme with 0.4 mM RuBP; assay 50 mM NaHCO3, 1 mM RuBP, 25 °C; active site
T7 construct: gene cbbL; large and small subunits

[13] = molecular target: T3, AfL2S2 (form IA^C carboxysomal rubisco); experiment: as above; format: biochemical; conditions: apoenzyme with 0.4 mM RuBP; assay 50 mM NaHCO3, 1 mM RuBP, 25 °C; active site
[14] = molecular target: T1, HnLS (form IA^C carboxysomal rubisco); experiment: as above; format: biochemical; conditions: apoenzyme with 0.4 mM RuBP; assay 50 mM NaHCO3, 1 mM RuBP, 25 °C; active site
[15] = molecular target: T8, AfL1S1 (form IA^Q rubisco) (Acidithiobacillus ferrooxidans, UniProt B7JA24); experiment: as above; format: biochemical; conditions: apoenzyme with 0.4 mM RuBP; assay 50 mM NaHCO3, 1 mM RuBP, 25 °C; active site
T8 construct: gene cbbL2; recombinant E. coli BL21(DE3); large and small subunits; anion exchange and size exclusion

[16] = molecular target: T4, AfL2S2 (form IA^C carboxysomal rubisco); experiment: spontaneous RuBP release from ER complex; format: biochemical; conditions: apoenzyme with RuBP; 25 °C; active site

T1 sequence (O85040 whole entry): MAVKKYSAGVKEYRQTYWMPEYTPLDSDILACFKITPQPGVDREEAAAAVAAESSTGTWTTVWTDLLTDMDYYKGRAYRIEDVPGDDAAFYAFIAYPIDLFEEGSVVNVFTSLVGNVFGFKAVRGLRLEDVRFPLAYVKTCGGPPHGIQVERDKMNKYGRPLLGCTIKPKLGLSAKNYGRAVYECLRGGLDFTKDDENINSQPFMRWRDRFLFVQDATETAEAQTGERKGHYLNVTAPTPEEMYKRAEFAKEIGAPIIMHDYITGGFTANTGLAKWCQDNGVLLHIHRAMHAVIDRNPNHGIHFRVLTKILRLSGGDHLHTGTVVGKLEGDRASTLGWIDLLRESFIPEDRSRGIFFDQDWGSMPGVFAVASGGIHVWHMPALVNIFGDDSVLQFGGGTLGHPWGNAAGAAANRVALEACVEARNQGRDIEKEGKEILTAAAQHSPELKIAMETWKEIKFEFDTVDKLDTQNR
T1 sequence (P45686 whole entry partner): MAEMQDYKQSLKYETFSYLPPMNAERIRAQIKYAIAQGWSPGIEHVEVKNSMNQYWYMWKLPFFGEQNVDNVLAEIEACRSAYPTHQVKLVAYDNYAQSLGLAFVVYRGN
T3 sequence (B7JB30 whole entry): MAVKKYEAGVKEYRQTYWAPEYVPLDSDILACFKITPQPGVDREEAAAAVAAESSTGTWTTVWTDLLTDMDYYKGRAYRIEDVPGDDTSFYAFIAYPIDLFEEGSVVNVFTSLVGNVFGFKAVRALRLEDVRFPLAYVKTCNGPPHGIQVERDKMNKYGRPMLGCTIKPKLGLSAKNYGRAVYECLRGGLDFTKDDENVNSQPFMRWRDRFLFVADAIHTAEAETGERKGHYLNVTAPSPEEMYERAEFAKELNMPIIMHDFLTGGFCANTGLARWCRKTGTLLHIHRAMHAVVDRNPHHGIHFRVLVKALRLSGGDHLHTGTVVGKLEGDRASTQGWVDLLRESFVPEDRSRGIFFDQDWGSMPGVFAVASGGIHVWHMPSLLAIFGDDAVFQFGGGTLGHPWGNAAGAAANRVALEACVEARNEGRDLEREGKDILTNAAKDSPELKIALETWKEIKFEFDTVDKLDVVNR
T3 sequence (B7JB29 1-110 partner): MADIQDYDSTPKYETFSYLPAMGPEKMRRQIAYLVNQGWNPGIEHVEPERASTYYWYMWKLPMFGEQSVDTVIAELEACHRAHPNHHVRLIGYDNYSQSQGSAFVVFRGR
T4 sequence (B7JB30 whole entry N472H): as the sequence (B7JB30 whole entry) above, with N472H counted along it
T4 sequence (B7JB29 entry or part of it, stated change not applied, further chain): as the sequence (B7JB29 1-110 partner) above
T2 sequence (B7JB30 whole entry V471A/N472H/R473K): as the sequence (B7JB30 whole entry) above, with V471A, N472H, R473K counted along it
T2 sequence (B7JB29 entry or part of it, stated change not applied, further chain): as the sequence (B7JB29 1-110 partner) above
T8 sequence (B7JA24 whole entry): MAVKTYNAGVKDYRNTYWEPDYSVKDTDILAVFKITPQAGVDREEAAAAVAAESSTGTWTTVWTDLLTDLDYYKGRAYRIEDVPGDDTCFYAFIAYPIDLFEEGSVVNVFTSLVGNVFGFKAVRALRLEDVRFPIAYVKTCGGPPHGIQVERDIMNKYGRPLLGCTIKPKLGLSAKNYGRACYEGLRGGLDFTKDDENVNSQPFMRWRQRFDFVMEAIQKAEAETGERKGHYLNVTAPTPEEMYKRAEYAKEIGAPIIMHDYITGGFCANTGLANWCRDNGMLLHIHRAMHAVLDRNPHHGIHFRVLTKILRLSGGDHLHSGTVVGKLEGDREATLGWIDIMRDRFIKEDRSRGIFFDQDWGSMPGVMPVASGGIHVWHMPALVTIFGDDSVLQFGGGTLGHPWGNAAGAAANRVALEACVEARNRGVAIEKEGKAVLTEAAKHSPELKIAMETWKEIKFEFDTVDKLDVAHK
T8 sequence (B7JA25 1-118 partner): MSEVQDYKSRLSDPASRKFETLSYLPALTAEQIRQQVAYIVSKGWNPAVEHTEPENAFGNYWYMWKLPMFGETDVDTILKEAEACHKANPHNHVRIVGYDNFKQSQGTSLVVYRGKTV
T6 sequence (B7JB16 entry or part of it): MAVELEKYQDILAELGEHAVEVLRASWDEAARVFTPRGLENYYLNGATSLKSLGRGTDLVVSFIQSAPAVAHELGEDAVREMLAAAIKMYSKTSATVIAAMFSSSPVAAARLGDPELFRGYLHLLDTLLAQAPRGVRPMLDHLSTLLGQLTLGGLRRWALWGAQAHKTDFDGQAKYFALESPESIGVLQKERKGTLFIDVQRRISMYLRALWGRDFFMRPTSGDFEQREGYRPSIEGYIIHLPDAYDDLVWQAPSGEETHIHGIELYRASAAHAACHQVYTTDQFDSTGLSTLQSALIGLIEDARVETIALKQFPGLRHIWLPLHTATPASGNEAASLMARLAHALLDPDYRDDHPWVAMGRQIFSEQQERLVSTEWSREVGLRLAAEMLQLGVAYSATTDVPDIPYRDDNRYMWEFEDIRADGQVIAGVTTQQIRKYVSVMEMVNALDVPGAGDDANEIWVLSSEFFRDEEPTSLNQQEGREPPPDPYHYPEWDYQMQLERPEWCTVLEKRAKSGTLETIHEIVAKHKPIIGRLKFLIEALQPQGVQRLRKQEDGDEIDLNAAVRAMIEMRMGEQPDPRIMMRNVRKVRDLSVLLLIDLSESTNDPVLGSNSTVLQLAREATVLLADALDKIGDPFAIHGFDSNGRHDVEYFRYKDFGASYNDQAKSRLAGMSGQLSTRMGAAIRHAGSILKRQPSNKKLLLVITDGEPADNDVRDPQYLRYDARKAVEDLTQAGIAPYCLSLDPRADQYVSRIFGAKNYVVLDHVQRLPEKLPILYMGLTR
T6 sequence (B7JB17 entry or part of it): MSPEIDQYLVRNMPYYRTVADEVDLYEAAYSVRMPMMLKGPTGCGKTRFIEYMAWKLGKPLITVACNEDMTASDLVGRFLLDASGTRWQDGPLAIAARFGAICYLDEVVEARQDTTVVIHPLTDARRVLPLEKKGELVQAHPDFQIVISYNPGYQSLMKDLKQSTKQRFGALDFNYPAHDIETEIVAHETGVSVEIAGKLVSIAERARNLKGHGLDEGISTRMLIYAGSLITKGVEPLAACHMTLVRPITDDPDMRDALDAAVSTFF

- Rca activity: activation of CABP-inhibited rubisco (ECMC), coupled spectrophotometric rubisco assay, 13% v/v PEG, 20 mM NaHCO3; against wildtype AfL2S2 [1]: 30 % increase
- Rca activity: activation of CABP-inhibited rubisco (ECMC), coupled spectrophotometric rubisco assay, 13% v/v PEG, 20 mM NaHCO3; against wildtype AfL2S2 [2]: 60 % reduction
Compound: A. ferrooxidans CbbQ3-CbbO3 rubisco activase complex (carboxysomal, form IA^C associated)

- Rca activity: activation of CABP-inhibited rubisco (ECMC), coupled spectrophotometric rubisco assay, 5% v/v PEG, 20 mM NaHCO3; against wildtype AfL2S2 [3]: 6 fold
- Rca activity: activation of CABP-inhibited rubisco (ECMC), coupled spectrophotometric rubisco assay, 5% v/v PEG, 20 mM NaHCO3; against wildtype AfL2S2 [4]: 6 fold
Compound: A. ferrooxidans CbbQ1-CbbO1 rubisco activase complex (form IA^Q associated)

Compound: O=C(O)[C@@](O)(COP(=O)(O)O)[C@H](O)[C@H](O)COP(=O)(O)O (mixture of isomers) [carboxy-arabinitol 1,5-bisphosphate]
- inhibited ECM-CABP (ECMC) complex, reactivation by CbbQO activase, coupled spect [5]: HnQO was able to remove CABP from its cognate form IA^C rubisco HnLS
- inhibited ECM-CABP (ECMC) complex, reactivation by CbbQO activase, coupled spect [6]: mutation at the C terminus of AfL2S2 enhances activation of ECMC complexes by Q1O1
- inhibited ECM-CABP (ECMC) complex, reactivation by CbbQO activase, coupled spect [7]: ability to remove the transition state analog CABP from the A. ferrooxidans form IA^C (AfL2S2) holoenzyme
- inhibited ECM-CABP (ECMC) complex, reactivation by CbbQO activase, coupled spect [8]: mutation at the C terminus of AfL2S2 enhances activation of ECMC complexes by Q1O1

Compound: Nc1ncnc2c1ncn2[C@@H]1O[C@H](COP(=O)(O)OP(=O)(O)OP(=O)(O)O)[C@@H](O)[C@H]1O [ATP]
- ATPase, coupled spectrophotometric assay [9]: The ATPase activity of the purified AfQ3O3 complex was similar to that of the AfQ1O1
- ATPase, coupled spectrophotometric assay [10]: The ATPase activity of the purified AfQ3O3 complex was similar to that of the AfQ1O1

Compound: O=C(COP(=O)(O)O)[C@H](O)[C@H](O)COP(=O)(O)O [ribulose 1,5-bisphosphate]
- spontaneous RuBP release from ER complex [11]: displayed similar carboxylation kinetics and spontaneous RuBP release under our assay conditions
- RuBP release rate [12]: the very loose RuBP-binding phenotype of the cyanobacterial form IB SynLS rubisco
- RuBP release rate [13]: The RuBP release rate was derived from the ER time courses
- RuBP release rate [14]: The RuBP release rate was derived from the ER time courses
- RuBP release rate [15]: (AfL1S1) formed a stable binary complex with RuBP and had the slowest inhibitor release rate
- spontaneous RuBP release from ER complex [16]: displayed similar carboxylation kinetics and spontaneous RuBP release under our assay conditions
